{
  "source": "PubChem BioAssay (NCI)",
  "test_in_all_cases": "NCI-60 cell line screen, 48 h",
  "key": {"SF-295 CNS": {"system": "SF-295 CNS"}, "MDA-MB-231 breast": {"system": "MDA-MB-231 breast"}, "RXF 393 renal": {"system": "RXF 393 renal"}, "OVCAR-5 ovarian": {"system": "OVCAR-5 ovarian"}, "UO-31 renal": {"system": "UO-31 renal"}, "HOP-92 NSCLC": {"system": "HOP-92 NSCLC"}, "OVCAR-3 ovarian": {"system": "OVCAR-3 ovarian"}, "ACHN renal": {"system": "ACHN renal"}, "OVCAR-8 ovarian": {"system": "OVCAR-8 ovarian"}, "RPMI-8226 leukemia": {"system": "RPMI-8226 leukemia"}},
  "note": "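Interpolation was linear, between the two tested concentrations surrounding the appropriate level; five concentrations were tested over 48 hours in 96-well plates. GI50 marks 50% less growth. TGI: total growth inhibition.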",
  "data": [
    {"compound": "COc1ccc(-c2ccc(-c3ccc(C(=N)N)nc3)s2)cc1Cl", "values": [
      {"measurement": "GI50", "setting": "SF-295 CNS", "value": 1800, "unit": "nM"},
      {"measurement": "TGI", "setting": "SF-295 CNS", "value": 3.24, "unit": "µM"},
      {"measurement": "GI50", "setting": "MDA-MB-231 breast", "value": 1700, "unit": "nM"},
      {"measurement": "TGI", "setting": "MDA-MB-231 breast", "value": 3.38, "unit": "µM"},
      {"measurement": "GI50", "setting": "RXF 393 renal", "value": 1760, "unit": "nM"},
      {"measurement": "TGI", "setting": "RXF 393 renal", "value": 3.23, "unit": "µM"},
      {"measurement": "GI50", "setting": "OVCAR-5 ovarian", "value": 1860, "unit": "nM"},
      {"measurement": "TGI", "setting": "OVCAR-5 ovarian", "value": 3.32, "unit": "µM"},
      {"measurement": "GI50", "setting": "UO-31 renal", "value": 1550, "unit": "nM"},
      {"measurement": "TGI", "setting": "UO-31 renal", "value": 2910, "unit": "nM"},
      {"measurement": "GI50", "setting": "HOP-92 NSCLC", "value": 1630, "unit": "nM"},
      {"measurement": "TGI", "setting": "HOP-92 NSCLC", "value": 3.41, "unit": "µM"},
      {"measurement": "GI50", "setting": "OVCAR-3 ovarian", "value": 1830, "unit": "nM"},
      {"measurement": "TGI", "setting": "OVCAR-3 ovarian", "value": 3.24, "unit": "µM"},
      {"measurement": "GI50", "setting": "ACHN renal", "value": 1770, "unit": "nM"},
      {"measurement": "TGI", "setting": "ACHN renal", "value": 3.15, "unit": "µM"},
      {"measurement": "GI50", "setting": "OVCAR-8 ovarian", "value": 2600, "unit": "nM"},
      {"measurement": "TGI", "setting": "OVCAR-8 ovarian", "value": 7.13, "unit": "µM"},
      {"measurement": "GI50", "setting": "RPMI-8226 leukemia", "value": 2250, "unit": "nM"},
      {"measurement": "TGI", "setting": "RPMI-8226 leukemia", "value": 4.9, "unit": "µM"}
    ]}
  ]
}
